According to ChEMBL document CHEMBL1201862, “PubChem BioAssay data set” (2004):
Active and inactive are the calls of the source.

Experiments:
[1] = biological target: T1, Mannose-6-phosphate isomerase (Homo sapiens, UniProt P34949); assay: phosphomannose isomerase inhibition – biochemical, fluorescence intensity, confirmation (AID 1535)
T1 sequence (P34949 whole entry): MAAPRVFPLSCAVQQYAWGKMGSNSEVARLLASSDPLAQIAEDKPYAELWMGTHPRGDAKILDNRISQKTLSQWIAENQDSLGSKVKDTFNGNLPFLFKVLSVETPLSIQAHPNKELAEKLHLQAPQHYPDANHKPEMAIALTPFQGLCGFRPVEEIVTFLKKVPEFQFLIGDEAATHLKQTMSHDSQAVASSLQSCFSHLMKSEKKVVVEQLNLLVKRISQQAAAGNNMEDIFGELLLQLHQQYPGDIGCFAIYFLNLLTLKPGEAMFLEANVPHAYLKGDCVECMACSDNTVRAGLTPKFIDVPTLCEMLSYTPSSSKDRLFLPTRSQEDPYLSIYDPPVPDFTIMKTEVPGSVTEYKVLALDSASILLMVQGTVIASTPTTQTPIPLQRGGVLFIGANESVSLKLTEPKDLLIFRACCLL

Phosphomannomutase 2 = Phosphomannomutase 2 (Homo sapiens, UniProt O15305); assay: Counter screen SAR assay for PMM2 inhibitors via a fluorescence intensity assay. [Related pubchem assays (depositor defined):AID1545, AID1574]
[2] = biological target: T2, Small ubiquitin-related modifier 2 (Homo sapiens, UniProt P61956); assay: disruption of SUMO2 interaction with SIM peptide – biochemical, fluorescence polarization, uHTS hits, selectivity assay for SUMO1 interaction inhibitor project, dose response (AID 624385); type: functional; conditions: read-out: IC50_Mean
Protein RecA = biological target: T3, Protein RecA (Mycobacterium tuberculosis, UniProt P9WHJ3); assay: Fluorescence Cell-Free Homogeneous Dose Retest to Identify Inhibitors of RecA-Intein Splicing Activity. [Related pubchem assays (depositor defined):AID2097, AID2223, AID489010, AID492950]; type: functional
T3 sequence (P9WHJ3 whole entry): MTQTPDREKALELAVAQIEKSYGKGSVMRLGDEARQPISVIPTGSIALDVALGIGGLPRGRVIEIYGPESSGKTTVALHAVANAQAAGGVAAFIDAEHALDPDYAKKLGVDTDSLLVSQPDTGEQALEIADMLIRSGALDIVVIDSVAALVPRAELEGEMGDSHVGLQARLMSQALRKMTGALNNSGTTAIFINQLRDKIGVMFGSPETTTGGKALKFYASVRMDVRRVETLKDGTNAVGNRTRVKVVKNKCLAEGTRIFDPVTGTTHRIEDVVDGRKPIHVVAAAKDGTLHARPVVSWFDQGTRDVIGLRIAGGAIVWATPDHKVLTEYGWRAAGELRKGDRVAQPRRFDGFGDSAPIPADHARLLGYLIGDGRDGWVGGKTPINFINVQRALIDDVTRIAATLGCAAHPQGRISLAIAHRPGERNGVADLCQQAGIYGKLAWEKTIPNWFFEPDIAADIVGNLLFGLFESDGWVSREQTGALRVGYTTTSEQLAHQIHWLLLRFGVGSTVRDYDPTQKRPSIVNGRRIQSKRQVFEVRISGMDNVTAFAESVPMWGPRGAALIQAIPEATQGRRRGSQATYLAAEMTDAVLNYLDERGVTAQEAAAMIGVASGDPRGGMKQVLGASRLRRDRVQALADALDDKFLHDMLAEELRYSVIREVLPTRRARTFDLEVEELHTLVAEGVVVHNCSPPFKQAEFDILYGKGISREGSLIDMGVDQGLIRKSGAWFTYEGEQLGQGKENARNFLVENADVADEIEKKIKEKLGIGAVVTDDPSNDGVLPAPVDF

Genome polyprotein = Genome polyprotein (dengue virus type 2, UniProt P29990); assay: flavivirus cap methylation enzyme inhibition – biochemical, confirmation dose response, primary screen (AID 588689); type: functional
[3] = biological target: T4, Small ubiquitin-related modifier 1 (Homo sapiens, UniProt P63165); assay: SUMO1 protein interaction blockers, potency – biochemical, fluorescence polarization, uHTS hits, dose response (AID 624382); type: functional; conditions: read-out: IC50_Mean
[4] = biological target: Dual specificity tyrosine-phosphorylation-regulated kinase 1A (Rattus norvegicus, UniProt Q63470); type: biochemical, Homo sapiens
Vero = assay: viability of Vero cells under compound – cytotoxicity control for flavivirus capping enzyme inhibitors (AID 588742); type: functional; conditions: Chlorocebus sabaeus
[5] = biological target: T2, Small ubiquitin-related modifier 2; assay: SUMO2 binding disruption by SUMO1 hits – biochemical, FRET, human SUMO2, uHTS hits, selectivity assay for SUMO1 interaction inhibitor project, dose response (AID 624384); type: functional; conditions: read-out: IC50_Mean
Troponin, cardiac muscle = Troponin, cardiac muscle (Homo sapiens, UniProt P19429+P45379+P63316); assay: compounds desensitizing RTF to calcium – biochemical, fluorescence, cardiac regulated thin filaments, triplicate IC50, dose response (AID 504742); type: protein-complex assay
[6] = CCR5-tropic HIV-1 fusion blockers – cell-based, CCR5-tropic Env, dose response (AID 2279); type: functional
[7] = biological target: T4, Small ubiquitin-related modifier 1; assay: SUMO1 protein-protein binding blockers, potency – biochemical, FRET, dose response (AID 624383); type: functional; conditions: read-out: IC50_Mean
[8] = biological target: T5, Replicative DNA helicase DnaB (Mycobacterium tuberculosis, UniProt P9WMR3); assay: DnaB intein splicing inhibitors, dose response, biochemical, cell-free fluorescence (AID 449749); type: functional
T5 sequence (P9WMR3 whole entry): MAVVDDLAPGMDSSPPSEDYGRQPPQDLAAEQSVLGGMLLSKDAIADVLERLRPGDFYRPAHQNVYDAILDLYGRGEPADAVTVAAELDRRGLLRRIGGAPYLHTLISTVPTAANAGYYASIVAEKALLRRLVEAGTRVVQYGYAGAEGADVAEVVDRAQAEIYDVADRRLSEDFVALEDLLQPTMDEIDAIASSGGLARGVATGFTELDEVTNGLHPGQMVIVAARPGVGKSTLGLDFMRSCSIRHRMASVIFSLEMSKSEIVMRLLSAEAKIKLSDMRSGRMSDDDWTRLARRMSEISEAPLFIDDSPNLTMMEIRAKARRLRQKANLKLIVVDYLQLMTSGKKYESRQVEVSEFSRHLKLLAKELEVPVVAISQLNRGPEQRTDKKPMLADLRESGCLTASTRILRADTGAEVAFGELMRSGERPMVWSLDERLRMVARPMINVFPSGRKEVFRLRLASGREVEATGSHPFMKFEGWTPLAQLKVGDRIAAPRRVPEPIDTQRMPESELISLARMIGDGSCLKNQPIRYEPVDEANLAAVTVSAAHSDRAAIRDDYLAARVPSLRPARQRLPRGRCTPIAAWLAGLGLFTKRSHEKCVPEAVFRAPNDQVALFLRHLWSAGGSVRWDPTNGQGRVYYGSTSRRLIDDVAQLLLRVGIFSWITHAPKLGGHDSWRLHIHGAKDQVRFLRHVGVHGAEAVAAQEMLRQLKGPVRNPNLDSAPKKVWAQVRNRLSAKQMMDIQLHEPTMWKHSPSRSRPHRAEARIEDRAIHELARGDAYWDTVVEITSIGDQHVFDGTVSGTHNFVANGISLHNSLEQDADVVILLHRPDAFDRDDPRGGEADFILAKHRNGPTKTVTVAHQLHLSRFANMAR

[9] = biological target: T6, Kappa-type opioid receptor (Homo sapiens, UniProt P41145); assay: SAR analysis of Antagonists of the Kappa Opioid Receptor (KOR) using an Image-Based Assay - Set 4. [Related pubchem assays (depositor defined):AID1777, AID1785]; type: functional
[10] = biological target: T6, Kappa-type opioid receptor; assay: SAR analysis of small molecule antagonists of the kappa opioid receptor via a luminescent beta-arrestin assay - Set 3. [Related pubchem assays (depositor defined):AID1777, AID1778, AID1785, AID1786, AID1966, AID2133, AID2136, AID2285, AID2495]; type: functional
Mu-type opioid receptor = Mu-type opioid receptor (Homo sapiens, UniProt P35372); assay: SAR Analysis of Antagonists of the MOR Receptor using an Image-Based Assay - Set 3. [Related pubchem assays (depositor defined):AID1777, AID1785, AID1786, AID1966, AID2133, AID2136, AID2284, AID2285, AID2420]; type: functional
[11] = biological target: Delta-type opioid receptor (Homo sapiens, UniProt P41143); assay: SAR Analysis of Antagonists of the DOR Receptor using an Image-Based Assay - Set 3. [Related pubchem assays (depositor defined):AID1777, AID1785]; type: functional;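 further: U2OS cells expressing DOR1 and beta-arrestin GFP stimulated with 100 nM SNC80; imaging of GFP-tagged beta-arrestin moving into spots after receptor activation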
[12] = biological target: T6, Kappa-type opioid receptor; assay: SAR analysis of small molecule antagonists of the kappa opioid receptor via a luminescent beta-arrestin assay - Set 6. [Related pubchem assays (depositor defined):AID1777, AID1778, AID1785, AID1786, AID1966, AID2133, AID2136, AID2285]; type: functional
[13] = biological target: DNA repair protein RAD52 homolog (Homo sapiens, UniProt P43351); type: functional, biochemical
[14] = biological target: T7, RNA-editing ligase 1, mitochondrial (Trypanosoma brucei brucei, UniProt P86926); assay: inhibition of trypanosome RNA editing ligase – biochemical, fluorescence, Trypanosoma brucei, dose response (AID 1117295); type: functional
T7 sequence (P86926 whole entry): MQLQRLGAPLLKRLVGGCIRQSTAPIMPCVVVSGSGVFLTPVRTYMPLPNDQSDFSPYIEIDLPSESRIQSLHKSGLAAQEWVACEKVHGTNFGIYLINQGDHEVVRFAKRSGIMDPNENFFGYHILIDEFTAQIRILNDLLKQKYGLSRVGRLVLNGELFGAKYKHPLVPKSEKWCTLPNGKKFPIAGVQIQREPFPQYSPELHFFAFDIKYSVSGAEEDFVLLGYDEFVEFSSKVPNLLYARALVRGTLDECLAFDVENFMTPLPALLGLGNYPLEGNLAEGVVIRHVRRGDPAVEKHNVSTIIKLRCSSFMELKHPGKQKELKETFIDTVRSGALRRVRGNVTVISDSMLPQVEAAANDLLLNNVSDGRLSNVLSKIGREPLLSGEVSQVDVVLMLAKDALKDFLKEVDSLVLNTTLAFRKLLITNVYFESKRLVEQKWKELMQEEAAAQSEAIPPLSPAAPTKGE

[15] = biological target: T8, Short transient receptor potential channel 4 (Mus musculus, UniProt Q9QUQ5); assay: block of DAMGO-driven TRPC4 calcium entry – cell-based, HEK293 TRPC4/mu-opioid, Fluo-4 calcium, dose response (AID 434942); type: functional;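 further: potency of inhibitors blocking the TRPC4 calcium response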
T8 sequence (Q9QUQ5 whole entry): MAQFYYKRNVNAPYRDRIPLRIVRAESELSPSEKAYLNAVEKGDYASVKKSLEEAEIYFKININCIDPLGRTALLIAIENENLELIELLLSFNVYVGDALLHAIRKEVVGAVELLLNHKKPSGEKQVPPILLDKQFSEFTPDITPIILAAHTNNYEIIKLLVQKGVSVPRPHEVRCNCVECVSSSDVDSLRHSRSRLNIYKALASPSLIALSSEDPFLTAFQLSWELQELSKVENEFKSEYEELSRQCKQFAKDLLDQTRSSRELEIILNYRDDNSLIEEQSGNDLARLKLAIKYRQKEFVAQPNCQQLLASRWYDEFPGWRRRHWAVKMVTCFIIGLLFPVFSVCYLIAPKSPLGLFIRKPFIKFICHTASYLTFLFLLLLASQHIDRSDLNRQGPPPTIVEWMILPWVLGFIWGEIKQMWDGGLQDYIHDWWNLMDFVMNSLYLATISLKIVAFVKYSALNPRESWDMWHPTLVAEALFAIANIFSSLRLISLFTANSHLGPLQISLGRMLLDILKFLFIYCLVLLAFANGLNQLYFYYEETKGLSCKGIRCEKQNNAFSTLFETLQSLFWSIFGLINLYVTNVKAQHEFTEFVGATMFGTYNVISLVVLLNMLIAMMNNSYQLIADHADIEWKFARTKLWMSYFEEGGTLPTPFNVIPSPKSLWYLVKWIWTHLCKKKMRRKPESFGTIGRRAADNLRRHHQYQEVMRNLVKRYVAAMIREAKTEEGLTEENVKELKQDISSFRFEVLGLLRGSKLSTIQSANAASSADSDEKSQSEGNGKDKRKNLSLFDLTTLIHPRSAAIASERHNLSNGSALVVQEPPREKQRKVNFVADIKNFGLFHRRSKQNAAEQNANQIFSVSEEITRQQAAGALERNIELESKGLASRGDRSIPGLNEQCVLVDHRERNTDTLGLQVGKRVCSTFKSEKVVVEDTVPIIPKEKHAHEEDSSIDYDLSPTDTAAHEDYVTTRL

[16] = biological target: G-protein coupled receptor 55 (Homo sapiens, UniProt Q9Y2T6); assay: selective activators of receptor GPR55 – imaging, U2OS cells, beta-arrestin-GFP redistribution, primary screen (AID 1961); type: functional
J774.A1 = assay: Confirmation of image-based Screening Assay for Inhibitors of Phagocytosis. [Related pubchem assays (depositor defined):AID1029, AID1643]; type: functional, cell-based; conditions: Mus musculus
[17] = HEK-293T viability loss after treatment – luminescence, T-cell screen hits, cytotoxicity control for TCR NF-kB inhibitor project, dose response (AID 489026); type: functional, cell-based;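 further: cells exposed to compound about 14 hours before the viability readout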

Cc1csc(-n2sc3ccccc3c2=O)n1
IC50 [1]: > 50 µM (inactive)
IC50 (Phosphomannomutase 2): > 100 µM (inactive)

O=[N+]([O-])c1cc([N+](=O)[O-])c2oc(-c3ccccc3)c(Br)c2c1O
IC50 [2]: 3.44 µM (active)
EC50 (Protein RecA): 111 µM (active)
IC50 (Genome polyprotein): 43.8 µM (active)
IC50 [3]: 4.09 µM (active)
AC50 [4]: 1.94 µM (active)
CC50 (Vero): 17.9 µM (active)
IC50 [5]: > 66 µM (inactive)
IC50 (Troponin, cardiac muscle): > 23.8 µM (inactive)
IC50 [6]: 16.3 µM (active)
IC50 [7]: 50.9 µM (inactive)
AC50 [8]: 3.08 µM (active)

Cc1ccnc2c1n1cccc1c(=O)n2CC(=O)NCCCN1CCN(c2ccc(Cl)cc2)CC1
IC50 [9]: 0.0696 µM (active)
IC50 [10]: 0.363 µM (active)
IC50 (Mu-type opioid receptor): > 32 µM (inactive)
IC50 [11]: > 32 µM (inactive)
IC50 [12]: 1.01 µM (active)

CCCCCC[N+](C)(C)CC/C=C1/c2ccccc2Sc2ccc(Cl)cc21
AC50 [13]: 10.2 µM (active)
IC50 [14]: > 96.6 µM (inactive)
EC50 [15]: 0.299 µM (active)

CCN(CC)C(=O)CC(c1ccc2c(c1)OCO2)c1c(OC)cc(OC)c2c(-c3ccccc3)cc(=O)oc12 (centres undefined)
EC50 [16]: 2.72 µM (active)

Cc1cccc(N2CCN(C(=O)c3ccc(CS(=O)(=O)c4ccccc4C)o3)CC2C)c1 (centres undefined)
IC50 (J774.A1): 0.421 µM (active)
IC50 [17]: 19.5 µM (active)
